The numbers were not newly measured in patent US8962638B2, “Piperidine inhibitors of janus kinase 3” (Auspex Pharmaceuticals, Inc., priority 2009, dated 2015), which cites them from elsewhere.

The conditions of data set [1]: humans, 14C labeled CP-690550, oral.

`C[C@@H]1CCN(C(=O)CC#N)C[C@@H]1N(C)c1ncnc2[nH]ccc12` [CP-690550, 4-methyl-3-(methyl-7H-pyrrolo[2,3-d]pyrimidin-4-ylamino)-beta-oxo-(3R,4R)-1-piperidinepropanenitrile]: the “renal excretion of unchanged drug, share of clearance” value (in vivo) is around 30%. Also, the “non-renal share of clearance” value (via hepatic metabolism by CYP3A4/5 and CYP2C19) is on record as “approximately 70%”. Also, the “mean terminal phase half-life of unchanged CP-690550” value in data set [1] was “approximately 3.2 hours”.
